Experimental data taken from patent US6759538B2, “Substituted diphenyl heterocycles useful for treating HCV infection” (priority 2001, dated 2004).

Target: HCV replicon
Test: HCV replicon assay (luciferase)
Type: cell-based, Hepatitis C virus (HCV)
Settings: 5-2 Luc replicon cells, 24 hours with compound, luciferase emission; first symbol of Replicon/Western
From the text: In one embodiment, the inhibitory activity of the compounds can be confirmed in a replicon assay that assesses the ability of a test compound to block or inhibit HCV replication in replicon cells. One example of a suitable replicon assay is the liver cell-line Huh 7-based replicon assay described in Lohmann et al., 1999, Science 285:110-113. A specific example of this replicon assay which utilizes luciferase translation is provided in the Examples Section. In one embodiment of this assay, the amount of test compound that yields a 50% reduction in translation as compared to a control cell (IC50) may be determined.
The inhibitory activity of certain exemplary compounds of the invention was confirmed using an HCV replicon assay. The HCV replicon can include such features as the HCV 5′ untranslated region including the HCV IRES, the HCV 3′ untranslated region, selected HCV genes encoding HCV polypeptides, selectable markers, and a reporter gene such as luciferase, GFP, etc. In the assay, actively dividing 5-2 Luc replicon-comprising cells (obtained from Rolf Bartenschlager; see Lohmann et al., 1999, Science 285:110-113) were seeded at a density of between about 5,000 and 7,500 cells/well onto 96 well plates (about 90 μl of cells per well) and incubated at 37° C. and 5% CO2 for 24 hours. Then, the test compound (in a volume of about 10 μl) was added to the wells at various concentrations and the cells were incubated for an additional 24 hours before luciferase assay. The media was aspirated from each well and Bright-Glo (Promega, Madison, Wis.) luciferase assay reagents were added to each well according to the manufacturer's instructions. Briefly, the Bright-Glo reagent was diluted 1:1 with PBS and 100 μl of diluted reagent was added to each well. After 5 min of incubation at room temperature, luciferin emission was quantified with a luminometer. In this assay, the amount of test compound that yielded a 50% reduction in luciferase emission (IC50) was determined.

SMILES	IC50 [µM]
O=C(Nc1cccc(-c2cc(-c3c(Cl)cccc3C3CCCC3)no2)c1)C(Cl)Cl [Compound 97, 2,2-Dichloro-N-[3-[3-(2-chloro-6-cyclopentylphenyl)-5-isoxazolyl]phenyl] Acetamide]	≤ 10
CN1CCN(c2cccc(Cl)c2-c2cc(-c3cccc(NC(=O)C(Cl)Cl)c3)on2)CC1 [Compound 99, 2,2-Dichloro-N-[3-[3-[2-chloro-6-(4-methylpiperazino)phenyl]-5-isoxazolyl]phenyl] Acetamide]	≤ 10
CCCCc1cccc(Cl)c1-c1cc(-c2cccc(NC(=O)C(Cl)Cl)c2)on1 [Compound 103, 2,2-Dichloro-N-[3-[3-(2-chloro-6-n-butylphenyl)-5-isoxazolyl]phenyl] Acetamide]	≤ 10
O=C(Nc1cccc(-c2cc(-c3c(C4CCCC4)cccc3C(F)(F)F)no2)c1)C(Cl)Cl [Compound 105, 2,2-Dichloro-N-[3-[3-(2-cyclopentyl-6-trifluoromethylphenyl)-5-isoxazolyl]phenyl] Acetamide]	≤ 10
O=C(Nc1ccc(S(=O)(=O)NN2CCOCC2)c(-c2cc(-c3c(Cl)cccc3Cl)no2)c1)C(Cl)Cl [Compound 107, 2,2-Dichloro-N-[3-[3-(2,6-dichlorophenyl)-5-isoxazolyl]-4-(N-morpholinosulfamoyl)-phenyl] Acetamide]	≤ 10
CN1CCN(c2cccc(C(F)(F)F)c2-c2cc(-c3cccc(NC(=O)C(Cl)Cl)c3)on2)CC1 [Compound 109, 2,2-Dichloro-N-[3-[3-[2-trifluoromethyl-6-(4-methylpiperazino)phenyl]-5-isoxazolyl]-phenyl] Acetamide]	≤ 10
O=C(Nc1cccc(-c2cc(-c3c(Cl)cccc3C3CCCCC3)no2)c1)C(Cl)Cl [Compound 111, 2,2-Dichloro-N-[3-[3-(2-chloro-6-cyclohexylphenyl)-5-isoxazolyl]phenyl] Acetamide]	≤ 10
O=C(Nc1cccc(-c2cc(-c3ccccc3OC(F)(F)F)no2)c1)C(Cl)Cl [Compound 113, 2,2-Dichloro-N-[3-[3-(2-trifluoromethoxyphenyl)-5-isoxazolyl]phenyl] Acetamide]	≤ 10
COC(=O)c1ccccc1-c1cc(-c2cccc(NC(=O)C(Cl)Cl)c2)on1 [Compound 115, 2,2-Dichloro-N-[3-[3-(2-carbomethoxy)phenyl-5-isoxazolyl]phenyl] Acetamide]	≤ 10
O=C(Nc1cccc(-c2cc(-c3c(Cl)cccc3-n3ccnc3)no2)c1)C(Cl)Cl [Compound 117, 2,2-Dichloro-N-[3-[3-[2-chloro-6-(N-imidazolyl)phenyl]-5-isoxazolyl]phenyl] Acetamide]	≤ 10
CC(C)Oc1ccccc1-c1cc(-c2cccc(NC(=O)C(Cl)Cl)c2)on1 [Compound 119, 2,2-Dichloro-N-[3-[3-(2-isopropyloxyphenyl)-5-isoxazolyl]phenyl] Acetamide]	≤ 10
CC(C)c1cccc(C(C)C)c1-c1cc(-c2cccc(NC(=O)C(Cl)Cl)c2)on1 [Compound 121, 2,2-Dichloro-N-[3-[3-(2,6-diisopropylphenyl)-5-isoxazolyl]phenyl] Acetamide]	≤ 10
O=C(Nc1cccc(-c2cc(-c3ccccc3-c3ccccc3)no2)c1)C(Cl)Cl [Compound 123, 2,2-Dichloro-N-[3-[3-(2-phenyl)phenyl-5-isoxazolyl]phenyl] Acetamide]	≤ 10
O=C(Nc1cccc(-c2cc(-c3c(Cl)cc(OCCN4CCCCC4)cc3Cl)no2)c1)C(Cl)Cl [Compound 125, 2,2-Dichloro-N-[3-[3-[2,6-dichloro-4-(N-piperidinylethylenoxy)phenyl]-5-isoxazolyl]-phenyl] Acetamide]	≤ 10
COc1ccc(NC(=O)C(Cl)Cl)cc1-c1cc(-c2c(Cl)cccc2Cl)no1 [Compound 127, 2,2-Dichloro-N-[3-[3-(2,6-dichlorophenyl)-5-isoxazolyl]-4-methoxyphenyl] Acetamide]	≤ 10
O=C(Nc1cccc(-c2cc(-c3ccccc3C3CCCC3)no2)c1)C(Cl)Cl [Compound 129, 2,2-Dichloro-N-[3-[3-(2-cyclopentylphenyl)-5-isoxazolyl]phenyl] Acetamide]	≤ 10
CN(C)CCN(C)c1cccc(Cl)c1-c1cc(-c2cccc(NC(=O)C(Cl)Cl)c2)on1 [Compound 131, 2-Dichloro-N-[3-[3-[2-chloro-6-(N,N-dimethylethylene-N′-methylamino)phenyl]-5-isoxazolyl]-phenyl] Acetamide]	≤ 10
O=C(Nc1cccc(-c2cc(-c3c(Cl)ccc(Cl)c3Cl)no2)c1)C(Cl)Cl [Compound 137, 2,2-Dichloro-N-[3-[3-(2,3,6-trichlorophenyl)-5-isoxazolyl]phenyl] Acetamide]	> 10
O=C(O)c1ccc(Cl)c(-c2cc(-c3cccc(NC(=O)C(Cl)Cl)c3)on2)c1Cl [Compound 139, 2,2-Dichloro-N-[3-[3-(3-carboxy-2,6-dichlorophenyl)-5-isoxazolyl]phenyl] Acetamide]	> 10
O=C(Nc1cccc(-c2cc(-c3cc(C(F)(F)F)ccc3Cl)no2)c1)C(Cl)Cl [Compound 141, 2,2-Dichloro-N-[3-[3-(2-chloro-5-trifluoromethylphenyl)-5-isoxazolyl]phenyl] Acetamide]	> 10
O=C(Nc1cccc(-c2cc(-c3c(Cl)cc(Cl)cc3OCCN3CCOCC3)no2)c1)C(Cl)Cl [Compound 143, 2,2-Dichloro-N-[3-[3-[2,4-dichloro-6-(N-morpholino-2-ethyleneoxy)phenyl]-5-isoxazolyl]-phenyl] Acetamide]	> 10
O=C(Nc1cccc(-c2cc(-c3c(Cl)cccc3Cl)no2)c1)C(F)F [Compound 145, 2,2-Difluoro-N-[3-[3-(2,6-dichlorophenyl)-5-isoxazolyl]phenyl] Acetamide]	> 10
Cc1ccc(F)c(-c2cc(-c3cccc(NC(=O)C(Cl)Cl)c3)on2)c1F [Compound 149, 2,2-Dichloro-N-[3-[3-(2,6-difluoro-3-methylphenyl)-5-isoxazolyl]phenyl] Acetamide]	> 10
CCOC(=O)C1CCN(c2cccc(Cl)c2-c2cc(-c3cccc(NC(=O)C(Cl)Cl)c3)on2)CC1 [Compound 151, 2,2-Dichloro-N-[3-[3-[2-chloro-6-(4-carboethoxypiperidino)phenyl]-5-isoxazolyl]-phenyl] Acetamide]	> 10
CS(=O)(=O)c1cccc(F)c1-c1cc(-c2cccc(NC(=O)C(Cl)Cl)c2)on1 [Compound 153, 2,2-Dichloro-N-[3-[3-(2-fluoro-6-methylsulfonyl)phenyl-5-isoxazolyl]phenyl] Acetamide]	> 10
O=C(O)c1ccccc1-c1cc(-c2cccc(NC(=O)C(Cl)Cl)c2)on1 [Compound 157, 2,2-Dichloro-N-[3-[3-(2-carboxyphenyl)-5-isoxazolyl]phenyl] Acetamide]	> 10
O=C(Nc1cccc(-c2cc(-c3ccccc3OCc3ccccc3)no2)c1)C(Cl)Cl [Compound 161, 2,2-Dichloro-N-[3-[3-(2-benzyloxyphenyl)-5-isoxazolyl]phenyl] Acetamide]	> 10
Cc1ccc(-c2cc(-c3c(Cl)cccc3Cl)no2)cc1NC(=O)C(Cl)Cl [Compound 165, 2,2-Dichloro-N-[3-[3-(2,6-dichlorophenyl)-5-isoxazolyl]-6-methylphenyl] Acetamide]	> 10
